Results on eight molecules are retold here after PubChem BioAssay (NCI).

Several values for one entry are separate records, joined by “and”; a condition that tells them apart may be missing. Identical values can stand only once.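 Cultured in 96-well plates, cells were exposed to test compound for 48 hours across five concentrations. GI50 is the concentration that inhibits growth by half. At the TGI there is no net growth.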 Some results are limits rather than exact numbers.

Holding throughout (assay): growth of human tumour cells (NCI), 48 h
Assay [1] concerns A498 renal.
Assay [2] relates to A549 NSCLC.
Assay [3] concerns DU-145 prostate.
Assay [4] relates to HS 578T breast.
In assay [5] the test system is KM12 colon.
Assay [6] concerns MCF7 breast.
In assay [7] the test system is NCI-H226 lung.
Assay [8] relates to SF-539 CNS.
For assay [9], the system named is SK-MEL-28 melanoma.
Assay [10] has as its system SK-OV-3 ovarian.

For `C#CCN(Cc1nc2cc(C(F)(F)F)ccc2nc1-c1ccccc1)c1ccc(F)cc1`, the GI50 in [1] was 38 µM; in assay [2], 20.4 µM; in assay [3], 39.4 µM; in assay [4] it was 34.7 µM; in [5], 21.3 µM; in assay [6], 23.2 µM. Besides, the GI50 in assay [7] is 42.4 µM; in assay [8] it was 37.4 µM; in assay [9], 44.2 µM; in assay [10], 33.4 µM. Further, the TGI in [1] is 92.8 µM; in assay [2], 60.9 µM; in [3], over 100 µM; in [4] it was over 100 µM; in assay [5], 60.9 µM; in assay [6] it was over 100 µM. Further, the TGI in [7], in assay [8], in [9] and in assay [10] was over 100 µM in each case.

On to `COc1cc(=O)oc(/C=C/C=C/C=C/C(C)=C\C2(C)OC(C)C(C)(O)C2O)c1C` (centres undefined), for which the TGI in assay [1], in assay [2], in assay [3], in assay [4], in [5] and in assay [6] was over 100 µM each time. The TGI in assay [7], in assay [8], in assay [9] and in [10] was over 100 µM each time.

Consider `COC(=O)CCCNC(=O)C(=O)c1c(O)c(O)c(C(C)C)c2cc(C)c(-c3c(C)cc4c(C(C)C)c(O)c(O)c(C(=O)C(=O)NCCCC(=O)OC)c4c3O)c(O)c12`, for which the GI50 in assay [1] is 1.36 µM; in assay [2], 0.255 µM; in [3] it was 0.556 µM; in assay [4], 0.975 µM; in assay [5], 0.164 µM; in assay [6] it was 0.641 µM. The GI50 in assay [7] is 0.575 µM; in [8] it was 0.997 µM; in [9], 1.1 µM; in assay [10], 0.855 µM. Besides, the TGI in assay [1] worked out at 14.3 µM; in assay [2], 4.01 µM; in assay [3], 3.74 µM; in [4] it was 11.6 µM; in assay [5], 4.58 µM; in [6], 4.71 µM. In addition, the TGI was determined as 2.94 µM in assay [7], 5.17 µM in assay [8], 6.92 µM in [9] and 2.57 µM in [10].

For `CSC1SCC2C(=O)N(C)C(C(C)C)C(=O)OCC(NC(=O)c3cnc4ccccc4n3)C(=O)NC(C)C(=O)N(C)C1C(=O)N(C)C(C(C)C)C(=O)OCC(NC(=O)c1cnc3ccccc3n1)C(=O)NC(C)C(=O)N2C` (centres undefined), the GI50 in [1], in [2], in assay [3], in [4], in assay [5] and in assay [6] was under 0.001 µM in each case. The GI50 in assay [7] was 0.00325 µM; in assay [8] it was under 0.001 µM; in assay [9], under 0.001 µM; in [10] it was 0.00174 µM. Also, in assay [4], the TGI was 0.00282 µM and 0.00359 µM.

`Cc1cc(C)c(O)c(CNCCCNCc2cc(C)cc(C)c2O)c1`: the GI50 in [1] is 1.71 µM; in assay [2], 11 µM; in [3], 5.19 µM; in assay [4], 2.05 µM; in assay [5] it was 2.58 µM; in [6], 1.67 µM. Moreover, the GI50 in assay [7] was 6.46 µM; in [8], 1.59 µM; in [9], 1.65 µM; in [10] it was 3.62 µM. The TGI in assay [1] was determined as 9.24 µM; in assay [2] it was 24.6 µM; in assay [3], 17.7 µM; in assay [4] it was 5.03 µM; in assay [5], 7.24 µM; in [6], 3.36 µM. Moreover, the TGI in assay [7] amounted to 21.9 µM; in [8], 3.11 µM; in assay [9] it was 3.19 µM; in assay [10], 13.6 µM.

Consider `O=C1c2ccccc2-c2c1c1ccc([N+](=O)[O-])cc1c(=O)n2CCCn1ccnc1`, for which the GI50 in assay [1] is 0.525 µM; in assay [2] it was 3.17 µM; in assay [3], under 0.0152 µM; in [4], 0.605 µM; in [5], 0.0227 µM; in assay [6], under 0.018 µM. Moreover, the GI50 in assay [7] was 0.0183 µM; in assay [8], 0.0149 µM; in assay [9], 0.352 µM; in [10], 9.63 µM. The TGI was 8.88 µM in assay [1]; 21.9 µM in assay [2]; 0.0542 µM in [3]; 10.2 µM in assay [4]; 1.25 µM in assay [5]; 4.24 µM in assay [6]. The TGI in assay [7] was 0.0637 µM; in assay [8], 0.0838 µM; in assay [9], 10.8 µM; in [10], over 39.5 µM.

With `Clc1ccc(COC(Cn2ccnc2)c2ccc(Cl)cc2Cl)c(Cl)c1` (centres undefined), the TGI is 17.6 µM and 27.3 µM and 19.6 µM in assay [1]; 15.5 µM and 23.8 µM and 23.2 µM in [2]; 23.5 µM and 29.6 µM and 25.6 µM in [3]; 24 µM and 32 µM in assay [4]; 15.5 µM and 26.4 µM and 28.8 µM in assay [5]; 12.4 µM and 27.8 µM and 33.3 µM in [6]. Further, the TGI in assay [7] is 3.31 µM and 23.2 µM and 24.2 µM; in assay [8] it was 27.8 µM and 32.7 µM and 27.7 µM; in assay [9], 17.8 µM and 34.2 µM and 26 µM; in assay [10], 9.92 µM and 27.5 µM and 27.4 µM. For the same molecule, the GI50 in assay [2] is 3.87 µM; in [3], 11.3 µM; in assay [4] it was 5.49 µM; in assay [5], 4.36 µM; in assay [6], 3.57 µM; in assay [7] it was 1.55 µM and 4.44 µM and 9.24 µM. Moreover, the GI50 in assay [9] was 4.96 µM; in assay [10], 2.99 µM.

For `O=C1CCC(N2C(=O)c3cccc(NCCOCCOCCNC(=O)c4cc5c(o4)C(=O)c4ccccc4C5=O)c3C2=O)C(=O)N1` (centres undefined), the GI50 in assay [1] is 1.66 µM; in assay [2], 2.18 µM; in [3] it was 1.82 µM; in assay [4], 2.4 µM; in assay [5], 3.19 µM; in assay [6], 1.35 µM. The GI50 in assay [7] was 1.7 µM; in assay [8], 1.62 µM; in assay [9], 1.92 µM; in assay [10] it was 3.09 µM. In addition, the TGI in assay [1] stood at 3.12 µM; in assay [2], 4.91 µM; in assay [3], 3.25 µM; in assay [4], 7.76 µM; in assay [5], 10.9 µM; in [6], 3.54 µM. In addition, the TGI in assay [7] turned out to be 3.8 µM; in [8], 2.99 µM; in [9], 3.9 µM; in assay [10] it was 7.78 µM.
